# Measurements taken from patent publication US20250206721A1, “Prostaglandin Receptor EP2 Antagonists, Derivatives, and Uses Related Thereto” (Emory University, priority 2019, published 2025).
# Where a name gives a salt, the structure may show the parent alone. Read-outs that look alike come from different tables or passages of the source.
# Columns and labels:
# C6glioma cells = conditions: rat
# [1] = pH 7.4
# [2] = mouse
# [3] = Solubility in simulated gastric fluid (SGF) by nephelometry
# human EP2 receptor = molecular target: T1, human EP2 receptor (Homo sapiens, UniProt P43116); assay: Cell-based cAMP TR-FRET assay, Schild KB on EP2; conditions: for Kb: Schild KB, agonist PGE2, antagonist concentration 1 μM, C6G cells expressing human EP2
# T1 construct: expressed in transfected cells
# physchem [4] = conditions: pH 2, simulated gastric fluid, kinetic from dmso stock
# physchem [5] = conditions: water, thermodynamic from solid
# in vitro = conditions: mouse, pooled liver microsomes
# [6] = Mouse liver microsomal (MLM) stability
# [7] = Kinetic aqueous solubility in PBS by nephelometry; conditions: for Aqueous Solubility: PBS buffer (pH 7.4) with 1% DMSO, nephelometry
# human EP4 receptor = human EP4 receptor (Homo sapiens, UniProt P35408); assay: Cell-based cAMP TR-FRET assay on EP4 (agonist PGE2); conditions: selectivity index EP4 KB/EP2 KB, fold
# human DP1 receptor = molecular target: T2, human DP1 receptor (Homo sapiens, UniProt Q13258); conditions: selectivity index DP1 KB/EP2 KB, fold
# T2 sequence (Q13258 1-359): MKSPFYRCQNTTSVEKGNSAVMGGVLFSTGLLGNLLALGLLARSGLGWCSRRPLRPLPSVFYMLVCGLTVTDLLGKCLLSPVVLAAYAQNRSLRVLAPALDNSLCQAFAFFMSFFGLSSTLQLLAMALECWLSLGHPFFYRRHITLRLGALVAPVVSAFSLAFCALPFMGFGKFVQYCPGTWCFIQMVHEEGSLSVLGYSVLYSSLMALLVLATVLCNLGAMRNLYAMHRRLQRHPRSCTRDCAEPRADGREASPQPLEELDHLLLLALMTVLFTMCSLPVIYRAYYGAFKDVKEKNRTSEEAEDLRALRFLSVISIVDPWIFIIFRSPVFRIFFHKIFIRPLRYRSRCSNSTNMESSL
# human IP receptor = human IP receptor (Homo sapiens, UniProt P43119); assay: Cell-based cAMP TR-FRET assay on IP (agonist iloprost); conditions: selectivity index IP KB/EP2 KB, fold
# [8] = Metabolite investigation in mouse liver microsomes; type: in vitro ADME; conditions: 2a after 5 minutes; 3 after 20 minutes
# [9] = mouse; remark: listed apart in the source
# [10] = Thermodynamic shake flask solubility in neat water
# T1 sequence (P43116 whole entry): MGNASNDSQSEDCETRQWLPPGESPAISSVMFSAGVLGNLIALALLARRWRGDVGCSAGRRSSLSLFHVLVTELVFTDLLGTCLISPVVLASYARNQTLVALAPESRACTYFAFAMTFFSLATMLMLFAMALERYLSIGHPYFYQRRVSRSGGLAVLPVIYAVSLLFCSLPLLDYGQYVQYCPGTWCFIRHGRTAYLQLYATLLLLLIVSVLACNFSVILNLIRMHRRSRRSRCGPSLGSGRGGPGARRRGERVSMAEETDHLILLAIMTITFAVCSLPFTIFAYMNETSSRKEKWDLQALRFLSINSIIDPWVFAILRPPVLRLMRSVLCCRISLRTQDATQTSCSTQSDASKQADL
# Sequence of human EP4 receptor (P35408 whole entry): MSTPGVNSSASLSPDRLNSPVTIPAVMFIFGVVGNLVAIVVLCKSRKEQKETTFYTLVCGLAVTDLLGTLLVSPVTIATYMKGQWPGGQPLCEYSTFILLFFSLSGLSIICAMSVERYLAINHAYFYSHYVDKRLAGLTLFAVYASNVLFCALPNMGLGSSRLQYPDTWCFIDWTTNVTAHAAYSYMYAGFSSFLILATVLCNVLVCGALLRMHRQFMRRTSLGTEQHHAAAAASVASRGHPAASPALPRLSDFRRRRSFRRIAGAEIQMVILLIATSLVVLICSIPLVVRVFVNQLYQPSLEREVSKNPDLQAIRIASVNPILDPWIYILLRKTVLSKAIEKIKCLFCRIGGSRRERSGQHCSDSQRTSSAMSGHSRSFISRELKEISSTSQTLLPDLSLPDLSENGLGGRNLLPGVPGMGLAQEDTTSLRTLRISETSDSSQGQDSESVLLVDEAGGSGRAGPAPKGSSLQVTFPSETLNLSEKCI
# Sequence of human IP receptor (P43119 whole entry): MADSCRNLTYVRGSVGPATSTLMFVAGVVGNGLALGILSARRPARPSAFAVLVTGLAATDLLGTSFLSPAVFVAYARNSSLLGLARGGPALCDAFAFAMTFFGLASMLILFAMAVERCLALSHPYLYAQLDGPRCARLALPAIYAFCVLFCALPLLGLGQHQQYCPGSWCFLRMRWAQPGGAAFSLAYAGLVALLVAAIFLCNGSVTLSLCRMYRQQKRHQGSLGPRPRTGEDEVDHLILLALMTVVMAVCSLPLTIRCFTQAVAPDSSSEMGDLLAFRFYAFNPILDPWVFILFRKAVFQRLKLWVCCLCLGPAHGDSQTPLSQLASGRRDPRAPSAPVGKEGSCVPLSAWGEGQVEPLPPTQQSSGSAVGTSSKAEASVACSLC
structure (smiles),measurement,setting,value
"Cc1cc(C)nc(Nc2ncc(C(=O)NCCc3c(C)[nH]c4ccccc34)cn2)c1 [Compound 20o, 2-((4,6-Dimethylpyridin-2-yl)amino)-N-(2-(2-methyl-1H-indol-3-yl)ethyl)pyrimidine-5-carboxamide]",CC50,C6glioma cells,> 50000 nM
same,Aqueous Solubility,[1],15 µM
same,MLMt1/2,[2],17 min
same,substrate of efflux pumps,MDR1-MDCK cell line,not the substrate of efflux pumps
same,"Permeability across MDR1-MDCK cell line, A-B",MDR1-MDCK cell line; dog,A-B: 13.2 × 10^−6 cm/s
same,"Permeability across MDR1-MDCK cell line, B-A",MDR1-MDCK cell line; dog,B-A: 22.2 × 10^−6 cm/s
same,bioavailability,"in vivo; mouse, po",25%
same,Aqueous solubility of corresponding HCl salt in SGF,"[3]; HCl salt, simulated gastric fluid pH 2.0, nephelometry",>250 µM
same,solubility,"[3]; pH 2, simulated gastric fluid, kinetic from dmso stock",> 100 µM
"Cc1cc(C)nc(Nc2ncc(C(=O)NCCc3c(C)[nH]c4c(F)cccc34)cn2)c1 [Compound 24aa, 2-((4,6-dimethylpyridin-2-yl)amino)-N-(2-(7-fluoro-2-methyl-1H-indol-3-yl)ethyl)pyrimidine-5-carboxamide]",Kb,human EP2 receptor,1.7 nM
same,Kp at 0.5 h,"in vivo; C57BL/6, mouse",0.4
same,half-life,"in vivo; mouse, ip, 20 mg/kg",5.4 h
same,solubility,physchem [4],> 250 µM
same,solubility,physchem [5],1100 to 1200 µg/mL
same,solubility at 24 h,physchem [5],2640 µM
same,half-life at 1 μM,in vitro,0.383 h
same,MLMt1/2,"[6]; 1 μM compound, 0.125 mg/mL liver microsomes (Table 7)",23 min
same,solubility,"[7]; PBS with 1% DMSO, pH 7.4, aqueous buffer, kinetic from dmso stock",150 µM
"Cc1[nH]c2ccccc2c1CCNC(=O)c1ccc(-c2cnc[nH]2)cc1 [TG8-260, 4-(1H-imidazol-5-yl)-N-(2-(2-methyl-1H-indol-3-yl)ethyl)benzamide]",inhibition of PGE2-induced human EP2 receptor activation,"human EP2 receptor; concentration-response, in words",inhibits PGE2-induced human EP2 receptor activation in a concentration dependent manner
same,S.I (EP4/EP2),human EP4 receptor,at least 300
same,S.I. (DP1/EP2),human DP1 receptor,at least 300
same,S.I (IP/EP2),human IP receptor,at least 300
Cc1[nH]c2ccccc2c1CCNC(=O)c1ccc(-c2nnn[nH]2)cc1 [Compound 3],metabolites after incubation in mouse liver microsomes,[8],did not produce any fragments even after 20 minutes of incubation
same,half-life,"in vivo; mouse, po, 10 mg/kg",> 6 h
same,MLMt1/2,"[6]; 1 μM compound, 0.5 mg/mL liver microsomes (compounds 1 and 3)",>60 min
"Cc1[nH]c2ccccc2c1CCNC(=O)c1cnc(Nc2ccccn2)nc1 [Compound 20a, N-(2-(2-Methyl-1H-indol-3-yl)ethyl)-2-(pyridin-2-ylamino)pyrimidine-5-carboxamide]",Aqueous Solubility,[7],27 µM
same,S.I. (DP1/EP2),human DP1 receptor,>900
same,S.I (IP/EP2),human IP receptor,>900
"COc1cccc(Nc2ncc(C(=O)NCCc3c(C)[nH]c4ccccc34)cn2)n1 [Compound 20h, 2-((6-Methoxypyridin-2-yl)amino)-N-(2-(2-methyl-1H-indol-3-yl)ethyl)pyrimidine-5-carboxamide]",Kb,human EP2 receptor,7.8 nM
same,Aqueous Solubility,[7],15 µM
same,S.I. (DP1/EP2),human DP1 receptor,>1280
same,S.I (IP/EP2),human IP receptor,>1280
"Cc1[nH]c2ccccc2c1CCNC(=O)c1cnc(Nc2cc(F)ccn2)nc1 [Compound 20c, 2-((4-Fluoropyridin-2-yl)amino)-N-(2-(2-methyl-1H-indol-3-yl)ethyl)pyrimidine-5-carboxamide]",stability in vivo,[9],unstable in vivo
same,Aqueous Solubility,[7],15 µM
same,S.I (EP4/EP2),human EP4 receptor,>1500
same,S.I (IP/EP2),human IP receptor,>1500
"Cc1ccnc(Nc2ncc(C(=O)NCCc3c(C)[nH]c4ccccc34)cn2)c1 [Compound 20b, N-(2-(2-Methyl-1H-indol-3-yl)ethyl)-2-((4-methylpyridin-2-yl)amino)pyramidine-5-carboxamide]",MLM T½,"[6]; 1 μM compound, 0.125 mg/mL liver microsomes, NADPH",8 min
same,Aqueous Solubility,[7],25 µM
"Cc1cc(C)nc(Nc2ncc(C(=O)NCCc3c(C)[nH]c4c(F)cc(F)cc34)cn2)c1 [Compound 24c, N-(2-(5,7-Difluoro-2-methyl-1H-indol-3-yl)ethyl)-2-((4,6-dimethylpyridin-2-yl)amino)pyrimidine-5-carboxamide]",Kb,human EP2 receptor,20 nM
same,solubility,physchem [4],> 100 µM
same,S.I (IP/EP2),human IP receptor,>500
"COc1ccccc1-c1ncc(C(=O)NCCc2c(C)[nH]c3ccccc23)cn1 [Compound 14a, 2-(2-Methoxyphenyl)-N-(2-(2-methyl-1H-indol-3-yl)ethyl)pyrimidine-5-carboxamide]",half-life,"in vivo; C57BL/6, mouse, ip, 10 mg/kg",< 1 h
same,solubility,physchem [4],> 100 µM
same,Aqueous Solubility,[7],71 µM
same,S.I (EP4/EP2),human EP4 receptor,517
same,S.I (IP/EP2),human IP receptor,730
"COc1cccc2c1C(=O)c1c(O)c3c(c(O)c1C2=O)C[C@@](O)(C(=O)CO)C[C@@H]3O[C@H]1C[C@H](N)[C@H](O)[C@H](C)O1 [doxorubucin, reference compound]",CC50,C6glioma cells,900 nM
"Cc1[nH]c2ccccc2c1CCNC(=O)c1cnc(Nc2cccc(F)n2)nc1 [Compound 20f, 2-((6-Fluoropyridin-2-yl)amino)-N-(2-(2-methyl-1H-indol-3-yl)ethyl)pyrimidine-5-carboxamide]",fold higher half-life in liver microsomes,"[6]; 24i vs 20o, 20c vs 20b, 20f vs 20e",8 fold
same,Aqueous Solubility,[7],41 µM
"Cc1cc(C)nc(Nc2ncc(C(=O)NCCc3c(C)[nH]c4ccccc34)cn2)c1 [Compound 20o.HCl, 2-((4,6-Dimethylpyridin-2-yl)amino)-N-(2-(2-methyl-1H-indol-3-yl)ethyl)pyrimidine-5-carboxamide.Hydrochloride]",water pH after dissolving,"[10]; 2 mg/mL in neat water, starting pH 6.4",3.5
same,water solubility,"[10]; thermodynamic solubility in water, HCl salts",1000 µg/mL
same,solubility,"[10]; water, thermodynamic from solid",1100 to 1200 µg/mL
